By solubility is commonly meant the concentration that dissolves in the medium under given conditions.

Data set [1] is described as follows: Solubility determining in water by HPLC (saturated solutions, external standard method). The data set is classed as physicochemical. The note with it: for solubility: thermodynamic from solid. From the text:
1. Solubility Determining:
1) Instruments and reagents: Thermo Fisher UltiMate 3000 high performance liquid chromatography (Thermo, USA); chromatographic column (Phenomenex Gemini C18, 5μ, 250×4.6 mm); electronic balance (METTLER TOLEDO instruments (Shanghai) Co., Ltd.); cannabidiol (commercially available), cannabidiol-3-sulfonic acid (prepared in Embodiment 1) and sodium cannabidiol-3-sulfonate (prepared in Embodiment 3). chromatography acetonitrile (Merck, Germany); water was Milli-Q ultrapure water, the remaining reagents were analytically pure.
Three clean 10 mL penicillin bottles were taken, 6 mL of ultrapure water was added accurately in each of the penicillin bottles, and the weight was weighed accurately. Cannabidiol, cannabidiol-3-sulfonic acid and sodium cannabidiol-3-sulfonate were separately added at room temperature until ultrasonic treatment was performed for 10 min and the samples still could not be completely dissolved, to obtain saturated solutions of three compounds respectively; the solutions stood overnight at room temperature, and supernatants were taken as solutions of samples for test (supernatants of the cannabidiol-3-sulfonic acid and the sodium cannabidiol-3-sulfonate were diluted by appropriate times depending on the detection situation).
An appropriate amount of cannabidiol, cannabidiol-3-sulfonic acid and sodium cannabidiol-3-sulfonate were taken and were prepared into solutions with a concentration of 0.2 mg·mL^−1 as reference substance solutions by using 10% acetonitrile-0.5% acetic acid solution.
The samples were determined by high performance liquid chromatography (Appendix V D of Part II of Chinese Pharmacopoeia).
Chromatographic conditions and system suitability Octadecylsilane bonded silica was used as a filler; 10% acetonitrile—0.5% acetic acid→75% acetonitrile—0.5% acetic acid were used as mobile phases; the wavelength was detected to be 225 nm; and the theoretical plate numbers were not less than 4,000 on a basis of cannabidiol, cannabidiol-3-sulfonic acid and sodium cannabidiol-3-sulfonate.
A measurement method includes: precisely measuring and injecting 20 μL of solution of sample for test into a liquid chromatograph, and recording a chromatogram; and taking a reference substance solution and measuring the reference substance solution according to the same method. The concentrations of the three compounds in the solution of sample for test were calculated by an external standard method according to a peak area.

For data set [2] the following is noted: high-purity CBD, cited from earlier work.
The mark [3] stands for this setting: in water, room temperature, saturated solution stood overnight, supernatant measured by HPLC, read-out: Solubility.

The structures appear in SMILES notation. In brackets after ≈: the same amount, converted by molar mass. Read-outs that look alike come from different tables or passages of the source.

`C=C(C)[C@@H]1CCC(C)=C[C@H]1c1c(O)cc(CCCCC)c(S(=O)(=O)O)c1O` [Cannabidiol-3-sulfonic acid, (1′R,2′R)-2,6-dihydroxy-5′-methyl-4-pentyl-2″-(propyl-1-en-2-yl)-1″,2′,3′,4′-tetrahydro-[1,1′-biphenyl]-3-sulfonic acid] gave a solubility in data set [1] (water) of 56.2 mg/mL (≈ 142 mM).

Regarding `C=C(C)[C@@H]1CCC(C)=C[C@H]1c1c(O)cc(CCCCC)c(S(=O)(=O)[O-])c1O.[Na+]` [Sodium cannabidiol-3-sulfonate, sodium cannabidiol-3-sulfonate], the solubility in data set [1] (setting [3]) was found to be 486 mg/mL.

On to `C=C(C)[C@@H]1CCC(C)=C[C@H]1c1c(O)cc(CCCCC)cc1O` [Cannabidiol, 2-[(1R,6R)-3-methyl-6-(1-methylvinyl)-2-cyclohexen-1-yl]-5-pentyl-1,3-benzenediol], for which, in data set [1] (in water at room temperature), the “Solubility in water (in words)” value was “slightly soluble”. Besides, the solubility in data set [1] (setting [3]) is 0.41 mg/mL (≈ 1.3 mM). Besides, the “Solubility in organic solvents (in words)” value in data set [2] (ethanol, methanol, ether, benzene, chloroform, petroleum ether and other organic solvents) is “soluble”. Besides, the “Solubility in water or 10% sodium hydroxide solution (in words)” value in data set [2] (water or 10% sodium hydroxide solution) was “almost insoluble”.
